# Patent US11066396B2 (priority 2016, dated 2021)
# Legend:
# HDAC8 = HDAC8 (Homo sapiens (Human), UniProt Q9BY41); details: read-out: HDAC8 IC50
# HDAC5 = HDAC5 (Homo sapiens (Human), UniProt Q9UQL6); details: read-out: HDAC5 IC50
# HDAC1 = HDAC1 (Homo sapiens (Human), UniProt Q13547); details: read-out: HDAC1 IC50
# HDAC1, sequence (Q13547 whole entry): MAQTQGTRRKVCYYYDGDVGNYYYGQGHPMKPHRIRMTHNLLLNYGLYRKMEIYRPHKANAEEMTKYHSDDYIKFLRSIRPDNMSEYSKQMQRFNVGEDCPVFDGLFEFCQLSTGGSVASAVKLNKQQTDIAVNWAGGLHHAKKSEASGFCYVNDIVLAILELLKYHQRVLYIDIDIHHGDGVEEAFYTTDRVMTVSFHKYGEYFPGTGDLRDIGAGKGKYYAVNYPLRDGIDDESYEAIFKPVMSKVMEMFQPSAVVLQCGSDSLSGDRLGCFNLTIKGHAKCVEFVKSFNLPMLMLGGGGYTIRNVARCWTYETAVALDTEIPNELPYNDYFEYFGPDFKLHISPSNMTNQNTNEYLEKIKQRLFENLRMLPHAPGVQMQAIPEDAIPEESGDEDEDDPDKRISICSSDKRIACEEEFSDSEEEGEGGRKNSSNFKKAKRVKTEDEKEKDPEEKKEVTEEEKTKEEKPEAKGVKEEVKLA
# Protocol: Assay protocol: In brief, compounds were titrated in 100% DMSO via accoustic dispensing directly to the assay plate using the ECHO 550 [Labcyte]. HDAC enzymes at the concentrations indicated above were added in assay buffer to the assay plates containing the compounds using a Combi [Thermo Scientific]. The wells were mixed, and the plates were allowed to pre-incubate at ambient temperature for 3 h. After the 3 h, the appropriate substrate, at the concentrations indicated above, was added to the wells using a Combi. The wells were mixed, and the plates were allowed to incubate at ambient temperature for 1 h. After the 1 h, the appropriate Developer/stop solution was added to the wells using a Combi. The wells were mixed, and the plates were allowed to incubate at ambient temperature for 1 h. […] Data were analyzed using 4P curve fitting with Activity Base [IDBS] software.
# HDAC5, sequence (Q9UQL6 656-1122): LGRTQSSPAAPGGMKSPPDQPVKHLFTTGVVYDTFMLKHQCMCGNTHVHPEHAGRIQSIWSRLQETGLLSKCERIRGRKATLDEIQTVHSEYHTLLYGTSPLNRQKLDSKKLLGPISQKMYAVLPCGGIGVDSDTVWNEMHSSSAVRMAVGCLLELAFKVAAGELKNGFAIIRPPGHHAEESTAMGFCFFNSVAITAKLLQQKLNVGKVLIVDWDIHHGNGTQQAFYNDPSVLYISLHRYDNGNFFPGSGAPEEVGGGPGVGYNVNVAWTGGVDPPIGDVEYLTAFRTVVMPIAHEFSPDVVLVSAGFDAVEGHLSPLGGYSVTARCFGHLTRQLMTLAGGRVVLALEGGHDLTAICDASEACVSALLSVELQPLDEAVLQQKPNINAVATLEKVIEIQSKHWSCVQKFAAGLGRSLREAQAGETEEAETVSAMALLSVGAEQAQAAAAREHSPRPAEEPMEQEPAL
# HDAC8, sequence (Q9BY41 whole entry): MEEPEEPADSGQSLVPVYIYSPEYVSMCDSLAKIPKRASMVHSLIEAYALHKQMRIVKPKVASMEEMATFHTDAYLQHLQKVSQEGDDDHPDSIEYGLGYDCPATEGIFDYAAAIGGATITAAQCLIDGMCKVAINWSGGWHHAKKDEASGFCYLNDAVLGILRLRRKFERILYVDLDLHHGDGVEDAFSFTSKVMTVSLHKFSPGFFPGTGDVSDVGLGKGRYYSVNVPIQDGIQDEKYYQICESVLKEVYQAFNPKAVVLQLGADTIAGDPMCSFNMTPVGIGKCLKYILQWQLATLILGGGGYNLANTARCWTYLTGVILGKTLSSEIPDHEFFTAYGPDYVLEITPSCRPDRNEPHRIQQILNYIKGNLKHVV
smiles,measurement,setting,value
"Cc1ccncc1COc1ccc(-c2noc(C(F)(F)F)n2)cn1 [Example 202, 2-[(4-methylpyridin-3-yl)methoxy]-5-[5-(trifluoromethyl)-1,2,4-oxadiazol-3-yl]pyridine]",IC50,HDAC8,0.9 µM
same,IC50,HDAC5,0.73 µM
same,IC50,HDAC1,2.2 µM
"Fc1cc(COc2cccc3[nH]nnc23)ccc1-c1noc(C(F)(F)F)n1 [Example 227, 4-({3-fluoro-4-[5-(trifluoromethyl)-1,2,4-oxadiazol-3-yl]phenyl}methoxy)-1H-benzotriazole]",IC50,HDAC8,0.73 µM
same,IC50,HDAC5,0.065 µM
same,IC50,HDAC1,1.5 µM
"Fc1cc(COc2nncc3ccccc23)ccc1-c1noc(C(F)(F)F)n1 [Example 228, 1-({3-fluoro-4-[5-(trifluoromethyl)-1,2,4-oxadiazol-3-yl]phenyl}methoxy)phthalazine]",IC50,HDAC8,2 µM
same,IC50,HDAC5,0.14 µM
same,IC50,HDAC1,4.3 µM
"Cn1nccc1OCc1ccc(-c2noc(C(F)(F)F)n2)c(F)c1 [Example 229, 3-(2-fluoro-4-{[(1-methyl-1H-pyrazol-5-yl)oxy]methyl}phenyl)-5-(trifluoromethyl)-1,2,4-oxadiazole]",IC50,HDAC8,4.8 µM
same,IC50,HDAC5,0.14 µM
same,IC50,HDAC1,3.7 µM
"Fc1cnc(OCc2ccc(-c3noc(C(F)(F)F)n3)c(F)c2)nc1 [Example 230, 5-fluoro-2-({3-fluoro-4-[5-(trifluoromethyl)-1,2,4-oxadiazol-3-yl]phenyl}methoxy)pyrimidine]",IC50,HDAC8,0.54 µM
same,IC50,HDAC5,0.2 µM
same,IC50,HDAC1,8.5 µM
"O=C1NCCc2c(OCc3ccc(-c4noc(C(F)(F)F)n4)c(F)c3)cccc21 [Example 231, 5-({3-fluoro-4-[5-(trifluoromethyl)-1,2,4-oxadiazol-3-yl]phenyl}methoxy)-3,4-dihydroisoquinolin-1(2H)-one]",IC50,HDAC8,45 µM
same,IC50,HDAC5,0.11 µM
same,IC50,HDAC1,6.9 µM
"Fc1cc(COc2cc[nH]n2)ccc1-c1noc(C(F)(F)F)n1 [Example 232, 3-(2-fluoro-4-{[(1H-pyrazol-3-yl)oxy]methyl}phenyl)-5-(trifluoromethyl)-1,2,4-oxadiazole]",IC50,HDAC8,1.3 µM
same,IC50,HDAC5,0.067 µM
same,IC50,HDAC1,3 µM
"Cn1cccc(OCc2ccc(-c3noc(C(F)(F)F)n3)c(F)c2)c1=O [Example 233, 3-({3-fluoro-4-[5-(trifluoromethyl)-1,2,4-oxadiazol-3-yl]phenyl}methoxy)-1-methylpyridin-2(1H)-one]",IC50,HDAC8,2.2 µM
same,IC50,HDAC5,0.17 µM
same,IC50,HDAC1,1.6 µM
"Fc1cc(COc2ccc3cnccc3n2)ccc1-c1noc(C(F)(F)F)n1 [Example 234, 2-({3-fluoro-4-[5-(trifluoromethyl)-1,2,4-oxadiazol-3-yl]phenyl}methoxy)-1,6-naphthyridine]",IC50,HDAC8,0.64 µM
same,IC50,HDAC5,0.0084 µM
same,IC50,HDAC1,0.37 µM
"Fc1cc(COc2cncnc2)ccc1-c1noc(C(F)(F)F)n1 [Example 236, 5-({3-fluoro-4-[5-(trifluoromethyl)-1,2,4-oxadiazol-3-yl]phenyl}methoxy)pyrimidine]",IC50,HDAC8,2.1 µM
same,IC50,HDAC5,0.042 µM
same,IC50,HDAC1,3.1 µM
"Cc1cc(OCc2ccc(-c3noc(C(F)(F)F)n3)c(F)c2)cc(C)n1 [Example 237, 4-({3-fluoro-4-[5-(trifluoromethyl)-1,2,4-oxadiazol-3-yl]phenyl}methoxy)-2,6-dimethylpyridine]",IC50,HDAC8,5.3 µM
same,IC50,HDAC5,0.23 µM
same,IC50,HDAC1,1.8 µM
"COc1cnnc(OCc2ccc(-c3noc(C(F)(F)F)n3)c(F)c2)c1 [Example 239, 3-({3-fluoro-4-[5-(trifluoromethyl)-1,2,4-oxadiazol-3-yl]phenyl}methoxy)-5-methoxypyridazine]",IC50,HDAC8,2.4 µM
same,IC50,HDAC5,0.19 µM
same,IC50,HDAC1,5.9 µM
"Fc1cc(COc2ccc3ncnn3c2)ccc1-c1noc(C(F)(F)F)n1 [Example 240, 6-({3-fluoro-4-[5-(trifluoromethyl)-1,2,4-oxadiazol-3-yl]phenyl}methoxy)[1,2,4]triazolo[1,5-a]pyridine]",IC50,HDAC8,11 µM
same,IC50,HDAC5,0.078 µM
same,IC50,HDAC1,1.5 µM
"Cc1nccc(OCc2ccc(-c3noc(C(F)(F)F)n3)c(F)c2)n1 [Example 241, 4-({3-fluoro-4-[5-(trifluoromethyl)-1,2,4-oxadiazol-3-yl]phenyl}methoxy)-2-methylpyrimidine]",IC50,HDAC8,3 µM
same,IC50,HDAC5,0.048 µM
same,IC50,HDAC1,3.2 µM
"Fc1cc(COc2cc(C(F)F)ncn2)ccc1-c1noc(C(F)(F)F)n1 [Example 242, 4-(difluoromethyl)-6-({3-fluoro-4-[5-(trifluoromethyl)-1,2,4-oxadiazol-3-yl]phenyl}methoxy)pyrimidine]",IC50,HDAC8,1.7 µM
same,IC50,HDAC5,0.11 µM
same,IC50,HDAC1,2.9 µM
"COc1ccc(OCc2ccc(-c3noc(C(F)(F)F)n3)c(F)c2)nc1 [Example 243, 2-({3-fluoro-4-[5-(trifluoromethyl)-1,2,4-oxadiazol-3-yl]phenyl}methoxy)-5-methoxypyridine]",IC50,HDAC8,1.6 µM
same,IC50,HDAC5,0.05 µM
same,IC50,HDAC1,1.5 µM
"Cc1cncnc1OCc1ccc(-c2noc(C(F)(F)F)n2)c(F)c1 [Example 244, 4-({3-fluoro-4-[5-(trifluoromethyl)-1,2,4-oxadiazol-3-yl]phenyl}methoxy)-5-methylpyrimidine]",IC50,HDAC8,1.9 µM
same,IC50,HDAC5,0.13 µM
same,IC50,HDAC1,3.3 µM
"Fc1cc(COc2cnc3c(c2)COC3)ccc1-c1noc(C(F)(F)F)n1 [Example 245, 3-({3-fluoro-4-[5-(trifluoromethyl)-1,2,4-oxadiazol-3-yl]phenyl}methoxy)-5,7-dihydrofuro[3,4-b]pyridine]",IC50,HDAC8,3.4 µM
same,IC50,HDAC5,0.18 µM
same,IC50,HDAC1,1.5 µM
"COc1ncccc1OCc1ccc(-c2noc(C(F)(F)F)n2)c(F)c1 [Example 246, 3-({3-fluoro-4-[5-(trifluoromethyl)-1,2,4-oxadiazol-3-yl]phenyl}methoxy)-2-methoxypyridine]",IC50,HDAC8,45 µM
same,IC50,HDAC5,0.12 µM
same,IC50,HDAC1,2.4 µM
"Cc1nc(OCc2ccc(-c3noc(C(F)(F)F)n3)c(F)c2)c2cnn(C)c2n1 [Example 248, 4-({3-fluoro-4-[5-(trifluoromethyl)-1,2,4-oxadiazol-3-yl]phenyl}methoxy)-1,6-dimethyl-1H-pyrazolo[3,4-d]pyrimidine]",IC50,HDAC8,2.6 µM
same,IC50,HDAC5,0.059 µM
same,IC50,HDAC1,2.6 µM
"Fc1cc(COc2[nH]nc3c2COCC3)ccc1-c1noc(C(F)(F)F)n1 [Example 249, 3-({3-fluoro-4-[5-(trifluoromethyl)-1,2,4-oxadiazol-3-yl]phenyl}methoxy)-2,4,6,7-tetrahydropyrano[4,3-c]pyrazole]",IC50,HDAC8,2.3 µM
same,IC50,HDAC5,0.074 µM
same,IC50,HDAC1,3.1 µM
"Fc1ccccc1OCc1ccc(-c2noc(C(F)(F)F)n2)cn1 [Example 251, 2-[(2-fluorophenoxy)methyl]-5-[5-(trifluoromethyl)-1,2,4-oxadiazol-3-yl]pyridine]",IC50,HDAC8,3.5 µM
same,IC50,HDAC5,0.19 µM
same,IC50,HDAC1,1.2 µM
"Nc1cccnc1COCc1ccc(-c2noc(C(F)(F)F)n2)c(F)c1 [Example 252, 2-[({3-fluoro-4-[5-(trifluoromethyl)-1,2,4-oxadiazol-3-yl]phenyl}methoxy)methyl]pyridin-3-amine]",IC50,HDAC8,4.5 µM
same,IC50,HDAC5,0.12 µM
same,IC50,HDAC1,2.6 µM
"Cc1ccc(NCc2ccc(-c3noc(C(F)(F)F)n3)c(F)c2)cn1 [Example 253, N-({3-fluoro-4-[5-(trifluoromethyl)-1,2,4-oxadiazol-3-yl]phenyl}methyl)-6-methylpyridin-3-amine]",IC50,HDAC8,3.9 µM
same,IC50,HDAC5,0.064 µM
same,IC50,HDAC1,1.7 µM
"Fc1cc(CNc2ccc3ccncc3c2)ccc1-c1noc(C(F)(F)F)n1 [Example 254, N-({3-fluoro-4-[5-(trifluoromethyl)-1,2,4-oxadiazol-3-yl]phenyl}methyl)isoquinolin-7-amine]",IC50,HDAC8,45 µM
same,IC50,HDAC5,0.14 µM
same,IC50,HDAC1,1.6 µM
"Cn1cnc2cc(COc3nccc(-c4noc(C(F)(F)F)n4)c3Cl)ccc21 [Example 255, 5-[({3-chloro-4-[5-(trifluoromethyl)-1,2,4-oxadiazol-3-yl]pyridin-2-yl}oxy)methyl]-1-methyl-1H-benzimidazole]",IC50,HDAC8,1.6 µM
same,IC50,HDAC5,0.38 µM
same,IC50,HDAC1,1.7 µM
"CN(C(=O)[C@@H]1CCC(=O)N1c1ccc(-c2noc(C(F)(F)F)n2)c(F)c1)C(C)(C)C [Example 340, N-tert-butyl-1-{3-fluoro-4-[5-(trifluoromethyl)-1,2,4-oxadiazol-3-yl]phenyl}-N-methyl-5-oxo-L-prolinamide]",IC50,HDAC8,27 µM
same,IC50,HDAC5,1.8 µM
same,IC50,HDAC1,31 µM
"CC1(C)CCCCN1C(=O)[C@@H]1CCC(=O)N1c1ccc(-c2noc(C(F)(F)F)n2)c(F)c1 [Example 343, (5S)-5-[(2,2-dimethylpiperidin-1-yl)carbonyl]-1-{3-fluoro-4-[5-(trifluoromethyl)-1,2,4-oxadiazol-3-yl]phenyl}pyrrolidin-2-one]",IC50,HDAC8,25 µM
same,IC50,HDAC5,3 µM
same,IC50,HDAC1,24 µM
"O=C(C1CCS(=O)(=O)CC1)N(Cc1ccc(-c2noc(C(F)(F)F)n2)cn1)c1cccc(C(F)(F)F)c1 [Example 456, N-({5-[5-(trifluoromethyl)-1,2,4-oxadiazol-3-yl]pyridin-2-yl}methyl)-N-[3-(trifluoromethyl)phenyl]tetrahydro-2H-thiopyran-4-carboxamide 1,1-dioxide]",IC50,HDAC8,2.5 µM
same,IC50,HDAC5,2.7 µM
same,IC50,HDAC1,0.36 µM
"O=C1COc2ccccc2N1Cc1ccc(-c2noc(C(F)(F)F)n2)cn1 [Example 462, 4-({5-[5-(trifluoromethyl)-1,2,4-oxadiazol-3-yl]pyridin-2-yl}methyl)-2H-1,4-benzoxazin-3(4H)-one]",IC50,HDAC8,2.4 µM
same,IC50,HDAC5,0.0096 µM
same,IC50,HDAC1,0.15 µM
"Cc1nc2ccc(F)cc2n1Cc1ccc(-c2noc(C(F)(F)F)n2)cn1 [Example 465, 6-fluoro-2-methyl-1-({5-[5-(trifluoromethyl)-1,2,4-oxadiazol-3-yl]pyridin-2-yl}methyl)-1H-benzimidazole]",IC50,HDAC8,5.6 µM
same,IC50,HDAC5,0.036 µM
same,IC50,HDAC1,0.72 µM
